# Reference: article PMC6767234, “Effects of the Ethanol Extract of Dipterocarpus alatus Leaf on the Unpredictable Chronic Mild Stress-Induced Depression in ICR Mice and Its Possible Mechanism of Action” (Molecules, 2019)
# Counter-ions that a name gives are not always drawn.
# Tests used:
# [1] = test system: ICR mice; set-up: method as in PMID 31394019; conditions: oral, 5 mg/kg for 7 days, vs vehicle-administered control group; cited from earlier work
# [2] = test system: mice; conditions: cited from earlier work
# [3] = test system: UCMS mice; assay: Tail suspension test (TST) in UCMS mice; assay type: in vivo, ICR mice; conditions: LE 100 and 500 mg/kg p.o. (dose-dependent), IMP 20 mg/kg i.p., vs vehicle-treated UCMS group
# Protocol: (§1) UCMS procedures were used to induce the depressive-like behaviors in mice as previously described by Mizuki et al., with minor modification. Briefly, in week 0, the animals were first trained to consume a 2% sucrose solution for a 48-h period in their home cages with no food or water. After this training, the animals were deprived of water and food for 18 h, and then sucrose solution was given for 1 h per day for 5 consecutive days in order to group the mice and determine the baseline sucrose consumption. The animals were randomly divided into 5 groups: a non-stressed control group and 4 other groups subjected to UCMS for 5 weeks. […]
# Each mouse was suspended upside down in the tail suspension test box, which leads to characteristic behavior immobility. […] Immobility duration was recorded for the last 4 min, during a 6-min observation period. […]
# [4] = test system: SGK1 mRNA; assay: QPCR of SGK1 mRNA in frontal cortex and hippocampus of UCMS mice; assay type: in vivo, ICR mice; conditions: LE 100 and 500 mg/kg p.o. (dose-dependent), IMP 20 mg/kg i.p.
# Protocol: as §1
# (§2) Mouse serum/glucocorticoid-regulated kinase 1 (SGK1), cyclic AMP response element binding protein (CREB), brain-derived neurotrophic factor (BDNF), mRNAs expression in hippocampus and frontal cortex were quantified by real time PCR. […] Fold difference relative expressions were calculated.
# [5] = test system: UCMS mice; assay: Sucrose preference test (anhedonia) in UCMS mice; assay type: in vivo, ICR mice; conditions: IMP 20 mg/kg i.p. daily, 5th week, vs vehicle-treated UCMS group
# Protocol: as §1, with “weeks. The UCMS procedures consisted of a variety of unpredictable mild stressors, including two periods of cage tilting at 45° (12 h), two periods of restricted access to food (5 micropellets, 1 h), two periods of exposure to an empty bottle (3 h), one 21 h-period of a wet cage (200 mL of water in 100 g of sawdust bedding), two periods of light exposure (36 h), two periods of intermittent sound (a cat singing sound) (3 and 5 h), two periods of paired caging (2 h), and food and water deprivation for 18 h before the measurement of 2% sucrose solution consumption.” for “weeks.”
# The sucrose preference test was used to assess the anhedonic-like behavior. […] The amounts of 2% (w/v) sucrose solution were recorded. […]
# [6] = test system: serum corticosterone (CORT); assay: Serum corticosterone (CORT) ELISA in UCMS mice; assay type: in vivo, ICR mice; conditions: imipramine 20 mg/kg/day, LE 100–500 mg/kg/day for 3 weeks, vs vehicle-treated UCMS group
# Protocol: as §1
# After completing the behavioral analysis, blood was collected via cardiac puncture under anesthesia with pentobarbital sodium as anesthetic drug (Nembutal®: 60 mg/kg i.p.; Ceva Sante Animale, Libourne, France). […] The absorbance was immediately determined at 450 nm.
# [7] = test system: BDNF mRNA; assay: QPCR of BDNF mRNA in frontal cortex and hippocampus of UCMS mice; assay type: in vivo, ICR mice; conditions: LE 100 and 500 mg/kg p.o., IMP 20 mg/kg i.p.
# Protocol: as §1, §2
# [8] = test system: CREB mRNA; assay: QPCR of CREB mRNA in frontal cortex and hippocampus of UCMS mice; assay type: in vivo, ICR mice; conditions: LE 100 and 500 mg/kg p.o., IMP 20 mg/kg i.p.
# Protocol: as §1, §2
# [9] = test system: UCMS mice; assay: Locomotor activity in the Y-maze task in UCMS mice; assay type: in vivo, ICR mice; conditions: LE 100 and 500 mg/kg p.o., IMP 20 mg/kg i.p.
# Protocol: as §1
# In order to exclude false positive results from drug-induced hyperlocomotion in hopeless behavioral tests, locomotor activity was determined by evaluation of mice movement. […] One hour after drug administration, the mice were individually placed on one arm, and the total arm entries were recorded manually over 8 min-period for measuring the locomotion activity.
# [10] = test system: UCMS mice; assay: Forced swimming test (FST) in UCMS mice; assay type: in vivo, ICR mice; conditions: LE 100 and 500 mg/kg p.o. (dose-dependent), IMP 20 mg/kg i.p., vs vehicle-treated UCMS group
# Protocol: as §1, with “weeks. The UCMS procedures consisted of a variety of unpredictable mild stressors, including two periods of cage tilting at 45° (12 h), two periods of restricted access to food (5 micropellets, 1 h), two periods of exposure to an empty bottle (3 h), one 21 h-period of a wet cage (200 mL of water in 100 g of sawdust bedding), two periods of light exposure (36 h), two periods of intermittent sound (a cat singing sound) (3 and 5 h), two periods of paired caging (2 h), and food and water deprivation for 18 h before the measurement of 2% sucrose solution consumption.” for “weeks.”
# Forced swimming test (FST) is one of the most commonly used animal models for assessing antidepressant-like behavior. […] The immobility time was recorded during 5 min.
# [11] = target: T1, recombinant human MAO-A (Homo sapiens, UniProt P21397); conditions: read-out: Km for the oxidation of kynuramine by MAO-A; cited from earlier work
# T1 sequence (P21397 1-527): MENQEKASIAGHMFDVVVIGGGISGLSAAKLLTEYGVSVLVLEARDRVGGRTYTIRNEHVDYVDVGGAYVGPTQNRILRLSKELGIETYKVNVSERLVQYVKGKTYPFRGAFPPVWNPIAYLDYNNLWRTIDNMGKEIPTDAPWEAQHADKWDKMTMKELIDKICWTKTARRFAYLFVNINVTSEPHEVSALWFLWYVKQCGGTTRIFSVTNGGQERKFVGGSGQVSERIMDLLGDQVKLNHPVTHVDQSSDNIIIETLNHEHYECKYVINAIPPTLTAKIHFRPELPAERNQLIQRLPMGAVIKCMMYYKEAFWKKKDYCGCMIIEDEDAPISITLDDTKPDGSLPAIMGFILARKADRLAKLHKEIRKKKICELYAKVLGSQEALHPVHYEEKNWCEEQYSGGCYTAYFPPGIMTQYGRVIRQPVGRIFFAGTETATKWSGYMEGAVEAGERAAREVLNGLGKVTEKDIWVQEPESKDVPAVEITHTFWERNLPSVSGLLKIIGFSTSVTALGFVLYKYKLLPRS
# [12] = target: T2, recombinant human MAO-B (Homo sapiens, UniProt P27338); conditions: read-out: Km for the oxidation of kynuramine by MAO-B; cited from earlier work
# T2 sequence (P27338 1-520): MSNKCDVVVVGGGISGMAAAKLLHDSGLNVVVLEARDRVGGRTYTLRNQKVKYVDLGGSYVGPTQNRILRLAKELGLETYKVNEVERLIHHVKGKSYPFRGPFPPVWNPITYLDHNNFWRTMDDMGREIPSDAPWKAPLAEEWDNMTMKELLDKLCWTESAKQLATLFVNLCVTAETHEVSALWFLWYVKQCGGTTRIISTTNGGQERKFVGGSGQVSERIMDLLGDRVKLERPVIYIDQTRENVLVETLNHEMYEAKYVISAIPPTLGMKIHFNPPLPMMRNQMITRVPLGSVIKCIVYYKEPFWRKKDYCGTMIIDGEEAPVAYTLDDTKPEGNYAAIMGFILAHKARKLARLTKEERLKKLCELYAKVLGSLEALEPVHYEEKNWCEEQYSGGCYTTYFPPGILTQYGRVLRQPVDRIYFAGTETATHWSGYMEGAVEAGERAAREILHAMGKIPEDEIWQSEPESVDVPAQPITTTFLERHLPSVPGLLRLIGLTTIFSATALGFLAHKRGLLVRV
# [13] = test system: UCMS; set-up: method as in PMID 28732760; conditions: cited from earlier work
structure (smiles),measurement,setting,value
COc1cc(/C=C/C(=O)O)ccc1O [ferulic acid],immobility,[1],significantly reduced immobility
O=c1cc(-c2ccc(O)c(O)c2)oc2cc(O)cc(O)c12 [luteolin],effect in FST and TST,"[2]; oral administration, 50 mg/kg",antidepressant effects
"CN(C)CCCN1c2ccccc2CCc2ccccc21 [imipramine, imipramine hydrochloride]",immobility time in TST,[3],significantly decreased the immobility time
same,mRNA expression of SGK1,[4],markedly decreased
same,2% sucrose intake,[5],significant increase
same,UCMS-induced elevation in serum CORT levels,[6],significantly suppressed
same,expression of BDNF mRNA,[7],normalized the down-regulated expression
same,expression of CREB mRNA,[8],normalized the down-regulated expression
same,"locomotor activity (number of arm entries, Y-maze)",[9],neither imipramine (IMP) nor the ethanol extract of D. alatus leaf improved the locomotor activity
same,immobility time in FST,[10],significantly decreased the immobility time
NCCC(=O)c1ccccc1N [kynuramine],Km,[11],16.1 µM
same,Km,[12],22.7 µM
O=c1c(O)c(-c2ccc(O)cc2)oc2cc(O)cc(O)c12 [Kaemferol],immobility time in FST and TST,[2]; stress-induced mice compared with unstressed mice,reducing the immobility time
"C[C@@H]1O[C@@H](OC[C@H]2O[C@@H](Oc3c(-c4ccc(O)c(O)c4)oc4cc(O)cc(O)c4c3=O)[C@H](O)[C@@H](O)[C@@H]2O)[C@H](O)[C@H](O)[C@H]1O [Rutin, quercetin-3-rutinoside]",UCMS-induced behavioral deficits,[13],efficiently rescued the UCMS-induced behavioral deficits
